Results: ChEMBL document CHEMBL1139662, “Synthesis and biological investigation of new 4''-malonyl tethered derivatives of erythromycin and clarithromycin” (Bioorg Med Chem Lett, 2006)
Values after ≈ are worked out from the molar mass of the structure shown.

Tests used:
Escherichia coli [1] = assay: Antibacterial activity against macrolide-sensitive Escherichia coli HN818; type: functional
Escherichia coli [2] = assay: Inhibition of protein synthesis in Escherichia coli cell-free translational system; type: functional

Row | MIC (Escherichia coli [1]) | IC50 (Escherichia coli [2]) | Structure (SMILES)
1 | 128 µg/mL (≈ 156 µM) | 3.7 µM | CC[C@H]1OC(=O)[C@H](C)[C@@H](OC2C[C@@](C)(OC)[C@@H](OC(=O)CC(=O)O)[C@H](C)O2)[C@H](C)[C@@H](OC2O[C@H](C)C[C@H](N(C)C)[C@H]2O)[C@](C)(O)C[C@@H](C)C(=O)[C@H](C)[C@@H](O)[C@]1(C)O (stereo partly drawn)
2 | 8 µg/mL (≈ 8.85 µM) | 1.1 µM | CC[C@H]1OC(=O)[C@H](C)[C@@H](OC2C[C@@](C)(OC)[C@@H](OC(=O)CC(=O)N(C)CCN(C)C)[C@H](C)O2)[C@H](C)[C@@H](OC2O[C@H](C)C[C@H](N(C)C)[C@H]2O)[C@](C)(O)C[C@@H](C)C(=O)[C@H](C)[C@@H](O)[C@]1(C)O (stereo partly drawn)
3 | 8 µg/mL (≈ 8.79 µM) | 1.1 µM | CC[C@H]1OC(=O)[C@H](C)[C@@H](OC2C[C@@](C)(OC)[C@@H](OC(=O)CC(=O)OCc3ccccc3)[C@H](C)O2)[C@H](C)[C@@H](OC2O[C@H](C)C[C@H](N(C)C)[C@H]2O)[C@](C)(O)C[C@@H](C)C(=O)[C@H](C)[C@@H](O)[C@]1(C)O (stereo partly drawn)
4 | 2 µg/mL (≈ 2.67 µM) | – | CC[C@H]1OC(=O)[C@H](C)[C@@H](O[C@H]2C[C@@](C)(OC)[C@@H](O)[C@H](C)O2)[C@H](C)[C@@H](O[C@@H]2O[C@H](C)C[C@H](N(C)C)[C@H]2O)[C@](C)(OC)C[C@@H](C)C(=O)[C@H](C)[C@@H](O)[C@]1(C)O [CLARITHROMYCIN]
5 | 8 µg/mL (≈ 8.66 µM) | 1.2 µM | CC[C@H]1OC(=O)[C@H](C)[C@@H](OC2C[C@@](C)(OC)[C@@H](OC(=O)CC(=O)OCc3ccccc3)[C@H](C)O2)[C@H](C)[C@@H](OC2O[C@H](C)C[C@H](N(C)C)[C@H]2O)[C@](C)(OC)C[C@@H](C)C(=O)[C@H](C)[C@@H](O)[C@]1(C)O (stereo partly drawn)
6 | 128 µg/mL (≈ 153 µM) | 3.9 µM | CC[C@H]1OC(=O)[C@H](C)[C@@H](OC2C[C@@](C)(OC)[C@@H](OC(=O)CC(=O)O)[C@H](C)O2)[C@H](C)[C@@H](OC2O[C@H](C)C[C@H](N(C)C)[C@H]2O)[C@](C)(OC)C[C@@H](C)C(=O)[C@H](C)[C@@H](O)[C@]1(C)O (stereo partly drawn)

Row | Structure (SMILES) | MIC (Escherichia coli [1]) | IC50 (Escherichia coli [2])
7 | CC[C@H]1OC(=O)[C@H](C)[C@@H](O[C@H]2C[C@@](C)(OC)[C@@H](O)[C@H](C)O2)[C@H](C)[C@@H](O[C@@H]2O[C@H](C)C[C@H](N(C)C)[C@H]2O)[C@](C)(O)C[C@@H](C)C(=O)[C@H](C)[C@@H](O)[C@]1(C)O [ERYTHROMYCIN] | 2 µg/mL (≈ 2.73 µM) | 0.9 µM
